In patent publication US10471119B2, “Composition for preventing, ameliorating, or treating neurological disease containing osmotin peptide as active ingredient” (INDUSTRY-ACADEMIC COOPERATION FOUNDATION GYEONGSANG …, priority 2015, dated 2019):
Residues, ends and D or L forms follow the SMILES beside them.

Key:
[1] = tested on: human neuroblast line SH-SY5Y; assay: ApoTox-Glo Triplex assay (cell viability, cytotoxicity, caspase-3 activity); type: cell-based; conditions: neuronal cells
Description: Human neuroblast line SH-SY5Y cells were cultured in 100 μl of dulbecco modified eagle medium (DMEM) supplemented with 10% (v/v) fetal bovine serum (FBS) and 1% (w/v) antibiotic (penicillin-streptomycin) at 37° C. and under the condition of 5% CO2.
Cells were seeded in a 96-well plate containing growth medium (DMEM medium containing 10% FBS, 100 units/ml penicillin, and […] streptomycin) in such a way that 100 μl of the culture was seeded in every cell at the population of 2×10^4 cells, and cultured under the condition of 5% CO2 at 37° C. When cells were about 70-90% confluent, they were transformed with pCAX-APP Swe/Ind for 8 hours by using Lipofectamine 3000 according to the manufacturers instructions. Then, the medium was removed by suction and replaced with fresh 100 μl of growth medium containing 0.5 to 20 μM osmotin-peptide. The cells in the fresh medium were incubated for 24 hours.
After 24 hours, ApoTox-Glo™ Triplex assay using Glomax-Multi Detection system was performed according to the manufacturer's instructions to confirm cell viability, cytotoxicity assay, and caspase-3 activity.

[2] = Brain transfer of osmotin peptide-FITC after IP and tail vein (IV) injection, confocal fluorescence; type: in vivo, mice; conditions: for migration to the hippocampus of the brain: four hours later, FIG. 3
Description: In addition, osmotin peptide-FITC was administered to the mice by intraperitoneal (IP) injection and tail vein injection (IV). Four hours later, the mice were fixed by transcardial perfusion with 4% (v/v) ice-cold paraformaldehyde, and the brain was harvested and post-fixed in 4% (v/v) paraformaldehyde for 72 hours, and finally, transferred to a 20% (w/v) sucrose for 72 hours.
The brain was infiltrated with OCT (optimal cutting temperature compound) under liquid nitrogen, and a 14 μm coronal section was mounted on a ProbeOn Plus slide.
Slides for immunofluorescence analysis were washed twice with 0.01 M PBS buffer for 15 minutes. The sections were covered with proteinase K and incubated for 5 minutes in a humid chamber at the temperature of 37° C. Incubation was performed for one hour in a blocking solution containing 5% (v/v) normal goat serum dissolved in PBS buffer and 0.3% (v/v) Triton X-100. After the blocking process, the mounting cover slips and sections were observed on a confocal laser-scanning microscope (Flouview FV 1000).

## C[C@@H](O)[C@H](NC(=O)[C@@H]1CCCN1C(=O)CNC(=O)[C@H](CS)NC(=O)[C@@H]1CCCN1C(=O)CNC(=O)[C@H](CCC(N)=O)NC(=O)[C@@H](NC(=O)[C@@H](N)CS)[C@@H](C)O)C(=O)O [osmotin peptide] (H-CTQGPCGPT-OH)
[1]
  cytotoxicity: little cytotoxicity
[2]; intraperitoneal (IP) injection
  migration to the hippocampus of the brain: migrated to the hippocampus of the brain
[2]; intravenous injection, FIG. 4
  migration to cortex and hypothalamus of the brain: migrated to cortex and hypothalamus of the brain
[2]; tail vein injection (IV)
  migration to the hippocampus of the brain: migrated to the hippocampus of the brain
